Test results taken from patent US20240360114A1 (SIRONAX LTD., priority 2021, published 2024).

Test system: HT-1080 cells
Assay: HT-1080 cell viability assay (ferroptosis induced by RSL3, Cell Titer-Glo)
Assay type: cell-based
Details: ferroptosis inducer RSL3, 20 hours, ferroptosis inhibitory activity, Table 2
Procedure: Example 2. Determination of EC50 Values in HT-1080 Cell Viability Assay
HT-1080 (ATCC, CCL-121) cells (6000 in 100 μl) were seeded in 96-well plates (Corning) and cultured in a 37° C. incubator with a humidified atmosphere of 5% CO2 for overnight. Cells were then treated with ferroptosis inducer RSL3 (TargetMol) and a 3-fold, 10-point serial dilution series of compounds with 1.1 μM as the highest concentration, for 20 hours. Cell viability was assessed using the Cell Titer-Glo Kit (Promega). The luminescence intensity was measured with a microplate reader (Envision, PerkinElmer), and cell viability was calculated by normalizing the data to untreated controls. The EC50 values of the compounds (e.g., Compounds 1-573 and 574-661) were calculated in GraphPad Prism (GraphPad Software, Inc., San Diego, CA, USA). The curves were fitted using a non-linear regression model with a sigmoidal dose response.

Row | Compound | EC50 [nM] | EC50 (Homo sapiens, HT-1080, 20 h) [nM] | also measured
1 | CCC(C)c1ccc(NC2CCC(N)CC2)cc1 (single isomer, unassigned) [Compound 289B, 1-N-(4-(sec-butyl)phenyl)cyclohexane-1,4-diamine] | 100 to 1000 | – | –
2 | CCC(C)(C)c1ccc(NC2CCC(NCCO)CC2)cc1 (single isomer, unassigned) [Compound 295A, 2-((4-((4-(tert-pentyl)phenyl)amino)cyclohexyl)amino)ethan-1-ol] | 100 to 1000 | – | –
3 | CCC(C)(C)c1ccc(NC2CCC(NCCO)CC2)cc1 (single isomer, unassigned) [Compound 295B, 2-((4-((4-(tert-pentyl)phenyl)amino)cyclohexyl)amino)ethan-1-ol] | 0.1 to 100 | – | –
4 | Cc1cc(NC2CCC(C)(N)CC2)cc(C)c1C (single isomer, unassigned) [Compound 313A, 1-methyl-N4-(3,4,5-trimethylphenyl)cyclohexane-1,4-diamine] | – | 0.1 to 100 | –
5 | CC(C)(C)c1ccc(NCC2CC(N)C2)cc1 (single isomer, unassigned) [Compound 335A, N-((3-aminocyclobutyl)methyl)-4-(tert-butyl)aniline] | 100 to 1000 | – | –
6 | CC(C)(C)c1ccc(NCC2CC(N)C2)cc1 (single isomer, unassigned) [Compound 335B, N-((3-aminocyclobutyl)methyl)-4-(tert-butyl)aniline] | 0.1 to 100 | – | –
7 | NC1CCC(Nc2ccc(N3CCCCC3CO)cc2)CC1 (single isomer, unassigned) [Compound 417A, (1-(4-((4-aminocyclohexyl)amino)phenyl)piperidin-2-yl)methanol] | 0.1 to 100 | – | –
8 | NC1CCC(Nc2ccc(N3CCCCC3CO)cc2)CC1 (single isomer, unassigned) [Compound 417B, (1-(4-((4-aminocyclohexyl)amino)phenyl)piperidin-2-yl)methanol] | 100 to 1000 | – | –
9 | Cc1nc(N2CC(C)OC(C)C2)c(F)cc1NC1C2CC3CC1CC(CN)(C3)C2 (single isomer, unassigned) [Compound 539A, N-((2r,5s)-5-(aminomethyl)adamantan-2-yl)-6-(2,6-dimethylmorpholino)-5-fluoro-2-methylpyridin-3-amine] | 0.1 to 100 | – | –
10 | Cc1nc(N2CC(C)OC(C)C2)c(F)cc1NC1C2CC3CC1CC(CN)(C3)C2 (single isomer, unassigned) [Compound 539B, N-((2r,5s)-5-(aminomethyl)adamantan-2-yl)-6-(2,6-dimethylmorpholino)-5-fluoro-2-methylpyridin-3-amine] | 100 to 1000 | – | –
11 | Cc1cc(NC2CC3(CC(N)C3)C2)cnc1N1C[C@H](C)O[C@@H](C)C1 (stereo in doubt) [Compound 480, N2-(6-((25,6S)-2,6-dimethylmorpholino)-5-methylpyridin-3-yl)spiro[3.3]heptane-2,6-diamine] | – | 100 to 1000 | –
12 | COc1cc(NC[C@H]2CC[C@H](N)CC2)ccc1N1C[C@@H](C)O[C@H](C)C1 (stereo in doubt) [Compound 496, N-(((1r,4R)-4-aminocyclohexyl)methyl)-4-((2S,6R)-2,6-dimethylmorpholino)-3-methoxyaniline] | – | 100 to 1000 | –
13 | NC(=O)[C@@H]1CCC(Nc2ccc(N3CCC(C(F)(F)F)CC3)cc2)[C@@H](N)C1 (stereo in doubt) [Compound 502, (1R,3S)-3-amino-4-((4-(4-(trifluoromethyl)piperidin-1-yl)phenyl)amino)cyclohexane-1-carboxamide] | – | – | EC50 (Homo sapiens): 0.1 to 100 nM
14 | CCN1CC(C(=O)NCC2CCC(Nc3ccc(N4CCC(C(F)(F)F)CC4)cc3)CC2)CC1=O (stereo not drawn) [Compound 1, 1-ethyl-5-oxo-N-((4-((4-(4-(trifluoromethyl)piperidin-1-yl)phenyl)amino)cyclohexyl)methyl) pyr rolidine-3-carboxamide] | – | 0.1 to 100 | –
15 | O=C1CC(C(=O)NCC2CCC(Nc3ccc(N4CCC(C(F)(F)F)CC4)cc3)CC2)CN1 (stereo not drawn) [Compound 2, 5-oxo-N-((4-((4-(4-(trifluoromethyl)piperidin-1-yl)phenyl)amino)cyclohexyl)methyl)pyrrolidine-3-carboxamide] | – | 0.1 to 100 | –
